The results in this text go back to the supplement of paper PMC10307832.

Assay in all cases: relative viability (nuclei count vs DMSO), 5 days (fraction); higher = more cells survive
Compound in experiment [1]: OCc1c[nH]c2ccccc12 [Indole-3-carbinol] + CC(=O)Nc1cccc(-n2c(=O)n(C3CC3)c(=O)c3c(Nc4ccc(I)cc4F)n(C)c(=O)c(C)c32)c1 [Trametinib] (partner 0.02 µM)
In short, it runs like this: (§1)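 Medians of duplicate plates are given as relative viability. That measure is the nuclei count in treated wells divided by the count in vehicle wells. Counts were taken on 4× images of lung cancer cell lines in 1536-well plates, 5 days after pin-tool dosing the day after seeding with one drug alone or a fixed anchor-drug dose plus five library-drug doses (not always all listed) in √10 steps.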

Compound in experiment [2]: OCc1c[nH]c2ccccc12 [Indole-3-carbinol] + CC(=O)c1c(C)c2cnc(Nc3ccc(N4CCNCC4)cn3)nc2n(C2CCCC2)c1=O [Palbociclib] (partner 0.5 µM)
In short, it runs like this: as §1

Compound in experiment [3]: OCc1c[nH]c2ccccc12 [Indole-3-carbinol] + CCNC(=O)c1noc(-c2cc(C(C)C)c(O)cc2O)c1-c1ccc(CN2CCOCC2)cc1 [Luminespib] (partner 0.01 µM)
In short, it runs like this:
as §1

Compound in experiment [4]: OCc1c[nH]c2ccccc12 [Indole-3-carbinol] + CS(=O)(=O)CCNCc1ccc(-c2ccc3ncnc(Nc4ccc(OCc5cccc(F)c5)c(Cl)c4)c3c2)o1 [Lapatinib] (partner 2 µM)
In short, it runs like this: as §1

Compound in experiment [5]: OCc1c[nH]c2ccccc12 [Indole-3-carbinol] + CS(=O)(=O)N1CCN(Cc2cc3nc(-c4cccc5[nH]ncc45)nc(N4CCOCC4)c3s2)CC1 [Pictilisib] (partner 1 µM)
In outline:
as §1

Take PC-14: the relative viability was found to be 0.7 in experiment [1] (first compound 0.253 µM); 0.729 in experiment [1] (first compound 0.8 µM); 0.818 in experiment [1] (first compound 2.53 µM); 0.711 in experiment [1] (first compound 8 µM); 0.538 in experiment [2] (first compound 0.253 µM); 0.509 in experiment [2] (first compound 0.8 µM). Further, the relative viability in experiment [2] (first compound 2.53 µM) is 0.541; in experiment [2] (first compound 8 µM), 0.462; in experiment [3] (first compound 0.253 µM), 0.218; in experiment [3] (first compound 0.8 µM) it was 0.143; in experiment [3] (first compound 2.53 µM) it was 0.24; in experiment [3] (first compound 8 µM), 0.191. For the same cell line, the relative viability came out at 0.288 in experiment [4] (first compound 0.253 µM); 0.321 in experiment [4] (first compound 0.8 µM); 0.342 in experiment [4] (first compound 2.53 µM); 0.266 in experiment [4] (first compound 8 µM); 0.738 in experiment [5] (first compound 0.253 µM); 0.875 in experiment [5] (first compound 0.8 µM). Further, the results for the relative viability in experiment [5] (first compound 2.53 µM) and in experiment [5] (first compound 8 µM) were 0.735 and 0.652, respectively.
For RERF-LC-KJ, the relative viability came to 0.812 in experiment [1] (first compound 0.253 µM); 0.904 in experiment [1] (first compound 0.8 µM); 0.943 in experiment [1] (first compound 2.53 µM); 0.825 in experiment [1] (first compound 8 µM); 1.14 in experiment [2] (first compound 0.253 µM); 0.968 in experiment [2] (first compound 0.8 µM). In addition, the relative viability is 0.941 in experiment [2] (first compound 2.53 µM); 1.15 in experiment [2] (first compound 8 µM); 1.25 in experiment [3] (first compound 0.253 µM); 1.18 in experiment [3] (first compound 0.8 µM); 1.23 in experiment [3] (first compound 2.53 µM); 1.11 in experiment [3] (first compound 8 µM). Also, the relative viability in experiment [4] (first compound 0.253 µM) was 0.866; in experiment [4] (first compound 0.8 µM), 0.891; in experiment [4] (first compound 2.53 µM) it was 0.802; in experiment [4] (first compound 8 µM) it was 0.787; in experiment [5] (first compound 0.253 µM), 0.512; in experiment [5] (first compound 0.8 µM) it was 0.541. For the same cell line, the values for the relative viability in experiment [5] (first compound 2.53 µM) and in experiment [5] (first compound 8 µM) were 0.562 and 0.581, respectively.
Regarding SK-LU-1, the relative viability in experiment [1] (first compound 0.253 µM) came to 0.637; in experiment [1] (first compound 0.8 µM) it was 0.453; in experiment [1] (first compound 2.53 µM), 0.469; in experiment [1] (first compound 8 µM), 0.582; in experiment [2] (first compound 0.253 µM) it was 0.404; in experiment [2] (first compound 0.8 µM), 0.36. For the same cell line, the relative viability in experiment [2] (first compound 2.53 µM) came out at 0.383; in experiment [2] (first compound 8 µM), 0.372; in experiment [3] (first compound 0.253 µM), 0.214; in experiment [3] (first compound 0.8 µM), 0.228; in experiment [3] (first compound 2.53 µM), 0.211; in experiment [3] (first compound 8 µM), 0.203. Also, the relative viability in experiment [4] (first compound 0.253 µM) was 0.941; in experiment [4] (first compound 0.8 µM), 0.903; in experiment [4] (first compound 2.53 µM) it was 1.06; in experiment [4] (first compound 8 µM), 0.829; in experiment [5] (first compound 0.253 µM), 0.568; in experiment [5] (first compound 0.8 µM), 0.405. Besides, the relative viability in experiment [5] (first compound 2.53 µM) was found to be 0.522; in experiment [5] (first compound 8 µM), 0.551.
SK-MES-1: the relative viability in experiment [1] (first compound 0.253 µM) was found to be 0.539; in experiment [1] (first compound 0.8 µM) it was 0.627; in experiment [1] (first compound 2.53 µM) it was 0.56; in experiment [1] (first compound 8 µM), 0.54; in experiment [2] (first compound 0.253 µM), 0.292; in experiment [2] (first compound 0.8 µM), 0.299. In addition, the relative viability was found to be 0.318 in experiment [2] (first compound 2.53 µM); 0.313 in experiment [2] (first compound 8 µM); 0.751 in experiment [3] (first compound 0.253 µM); 0.88 in experiment [3] (first compound 0.8 µM); 0.667 in experiment [3] (first compound 2.53 µM); 0.798 in experiment [3] (first compound 8 µM). Also, the relative viability in experiment [4] (first compound 0.253 µM) worked out at 0.455; in experiment [4] (first compound 0.8 µM) it was 0.501; in experiment [4] (first compound 2.53 µM), 0.452; in experiment [4] (first compound 8 µM), 0.421; in experiment [5] (first compound 0.253 µM), 0.416; in experiment [5] (first compound 0.8 µM), 0.356. The relative viability amounted to 0.321 in experiment [5] (first compound 2.53 µM) and 0.4 in experiment [5] (first compound 8 µM).
On to SW 1573, for which the relative viability amounted to 0.512 in experiment [1] (first compound 0.253 µM); 0.605 in experiment [1] (first compound 0.8 µM); 0.534 in experiment [1] (first compound 2.53 µM); 0.564 in experiment [1] (first compound 8 µM); 0.377 in experiment [2] (first compound 0.253 µM); 0.41 in experiment [2] (first compound 0.8 µM). The relative viability stood at 0.449 in experiment [2] (first compound 2.53 µM); 0.37 in experiment [2] (first compound 8 µM); 0.183 in experiment [3] (first compound 0.253 µM); 0.248 in experiment [3] (first compound 0.8 µM); 0.303 in experiment [3] (first compound 2.53 µM); 0.138 in experiment [3] (first compound 8 µM). For the same cell line, the relative viability in experiment [4] (first compound 0.253 µM) was found to be 1.2; in experiment [4] (first compound 0.8 µM) it was 1.05; in experiment [4] (first compound 2.53 µM) it was 1.16; in experiment [4] (first compound 8 µM), 1.08; in experiment [5] (first compound 0.253 µM), 0.361; in experiment [5] (first compound 0.8 µM), 0.577. Also, the relative viability came to 0.544 in experiment [5] (first compound 2.53 µM) and 0.425 in experiment [5] (first compound 8 µM).
With UMC-11, the relative viability in experiment [1] (first compound 0.253 µM) is 0.713; in experiment [1] (first compound 0.8 µM), 0.727; in experiment [1] (first compound 2.53 µM) it was 0.675; in experiment [1] (first compound 8 µM), 0.683; in experiment [2] (first compound 0.253 µM), 0.338; in experiment [2] (first compound 0.8 µM), 0.34. Also, the relative viability was 0.319 in experiment [2] (first compound 2.53 µM); 0.32 in experiment [2] (first compound 8 µM); 1.01 in experiment [3] (first compound 0.253 µM); 0.953 in experiment [3] (first compound 0.8 µM); 1.04 in experiment [3] (first compound 2.53 µM); 1.01 in experiment [3] (first compound 8 µM). Moreover, the relative viability stood at 1.03 in experiment [4] (first compound 0.253 µM); 0.953 in experiment [4] (first compound 0.8 µM); 0.91 in experiment [4] (first compound 2.53 µM); 0.951 in experiment [4] (first compound 8 µM); 0.792 in experiment [5] (first compound 0.253 µM); 0.836 in experiment [5] (first compound 0.8 µM). Further, the relative viability in experiment [5] (first compound 2.53 µM) is 0.764; in experiment [5] (first compound 8 µM), 0.789.
